According to patent US8802597B2, “Herbicidal pyrimidines” (E I du Pont de Nemours and Company, priority 2003, dated 2014):

Experiments:
Assay in all cases: Test E flooded paddy water application
Format in all cases: in vivo
[1] = tested on: smallflower umbrella sedge (Cyperus difformis); details: Flood, 21 days, scale 0 to 100 (0 no effect, 100 complete control); for Plant response rating, Sedge, Umbrella: 16 g ai/ha
How it was run: (§1)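 Greenhouse pots of Tama silt loam with weeds and rice at 2.0–2.5-leaf stage, flooded to 3 cm; compounds applied directly into paddy water, depth maintained. Visual rating versus untreated controls after 21 days, 0 (no effect) to 100 (complete control); 29.5/26.7 °C, 16-h photoperiod.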

[2] = tested on: transplanted rice seedlings (Oryza sativa cv. ‘Japonica-M202’); details: Flood, 21 days, scale 0 to 100 (0 no effect, 100 complete control); for Plant response rating, Rice, Transplanted: 16 g ai/ha
How it was run: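 Response scored visually on a 0–100 scale (100 = complete control) at 21 days against untreated pots. Treatment was into paddy water 3 cm deep over silt loam, with plants at the 2.0–2.5-leaf stage, grown under 16-h light at 29.5/26.7 °C day/night.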

[3] = tested on: late watergrass (Echinochloa oryzicola); details: Flood, 21 days, scale 0 to 100 (0 no effect, 100 complete control); for Plant response rating, Watergrass, Late: 16 g ai/ha
How it was run: as §1

[4] = tested on: water seeded rice seedlings (Oryza sativa cv. ‘Japonica-M202’); details: Flood, 21 days, scale 0 to 100 (0 no effect, 100 complete control); for Plant response rating, Rice, Water Seeded: 16 g ai/ha
How it was run: as §1

[5] = tested on: junglerice (Echinochloa colona); details: Flood, 21 days, scale 0 to 100 (0 no effect, 100 complete control); for Plant response rating, Junglerice: 16 g ai/ha
How it was run: as §1

[6] = tested on: rice flatsedge (Cyperus iria); details: Flood, 21 days, scale 0 to 100 (0 no effect, 100 complete control); for Plant response rating, Flatsedge, Rice: 16 g ai/ha
How it was run: as §1

[7] = tested on: ducksalad (Heteranthera limosa); details: Flood, 21 days, scale 0 to 100 (0 no effect, 100 complete control); for Plant response rating, Ducksalad: 16 g ai/ha
How it was run: as §1

[8] = tested on: purple redstem (Ammannia coccinea); details: Flood, 21 days, scale 0 to 100 (0 no effect, 100 complete control); for Plant response rating, Redstem: 16 g ai/ha
How it was run: as §1

[9] = tested on: bearded (brdd.) sprangletop (Leptochloa fusca ssp. fascicularis); details: Flood, 21 days, scale 0 to 100 (0 no effect, 100 complete control); for Plant response rating, Sprangletop, Brdd.: 16 g ai/ha
How it was run: as §1

[10] = tested on: early watergrass (Echinochloa oryzoides); details: Flood, 21 days, scale 0 to 100 (0 no effect, 100 complete control); for Plant response rating, Watergrass, Early: 16 g ai/ha
How it was run: as §1

Nc1nc(-c2ccc(Cl)cc2)nc(C(=O)O)c1Cl [Compound 65, 6-amino-5-chloro-2-(4-chlorophenyl)-4-pyrimidinecarboxylic acid]
85: Sedge, Umbrella plant response rating ([1]; 64 g ai/ha)
40: Junglerice plant response rating ([5]; 125 g ai/ha) | Junglerice plant response rating ([5]; 250 g ai/ha) | Sprangletop, Brdd. plant response rating ([9]; 125 g ai/ha) | Sprangletop, Brdd. plant response rating ([9]; 250 g ai/ha)
30: Redstem plant response rating ([8]; 32 g ai/ha) | Redstem plant response rating ([8]; 64 g ai/ha)
20: Plant response rating, Sedge, Umbrella [1]
80: Sedge, Umbrella plant response rating ([1]; 32 g ai/ha) | Flatsedge, Rice plant response rating ([6]; 32 g ai/ha)
50: Redstem plant response rating ([8]; 125 g ai/ha)
100: Sedge, Umbrella plant response rating ([1]; 125 g ai/ha) | Sedge, Umbrella plant response rating ([1]; 250 g ai/ha) | Flatsedge, Rice plant response rating ([6]; 64 g ai/ha) | Flatsedge, Rice plant response rating ([6]; 125 g ai/ha) | Flatsedge, Rice plant response rating ([6]; 250 g ai/ha) | Ducksalad plant response rating ([7]; 32 g ai/ha) | Ducksalad plant response rating ([7]; 64 g ai/ha) | Ducksalad plant response rating ([7]; 125 g ai/ha) | Ducksalad plant response rating ([7]; 250 g ai/ha) | Plant response rating, Ducksalad [7]
25: Watergrass, Late plant response rating ([3]; 250 g ai/ha)
10: Rice, Water Seeded plant response rating ([4]; 250 g ai/ha) | Watergrass, Early plant response rating ([10]; 250 g ai/ha)
0: Rice, Transplanted plant response rating ([2]; 32 g ai/ha) | Rice, Transplanted plant response rating ([2]; 64 g ai/ha) | Rice, Transplanted plant response rating ([2]; 125 g ai/ha) | Rice, Transplanted plant response rating ([2]; 250 g ai/ha) | Plant response rating, Rice, Transplanted [2] | Watergrass, Late plant response rating ([3]; 32 g ai/ha) | Watergrass, Late plant response rating ([3]; 64 g ai/ha) | Watergrass, Late plant response rating ([3]; 125 g ai/ha) | Plant response rating, Watergrass, Late [3] | Rice, Water Seeded plant response rating ([4]; 32 g ai/ha) | Rice, Water Seeded plant response rating ([4]; 64 g ai/ha) | Rice, Water Seeded plant response rating ([4]; 125 g ai/ha) | Plant response rating, Rice, Water Seeded [4] | Junglerice plant response rating ([5]; 32 g ai/ha) | Junglerice plant response rating ([5]; 64 g ai/ha) | Plant response rating, Junglerice [5] | Plant response rating, Flatsedge, Rice [6] | Plant response rating, Redstem [8] | Sprangletop, Brdd. plant response rating ([9]; 32 g ai/ha) | Sprangletop, Brdd. plant response rating ([9]; 64 g ai/ha) | Plant response rating, Sprangletop, Brdd. [9] | Watergrass, Early plant response rating ([10]; 32 g ai/ha) | Watergrass, Early plant response rating ([10]; 64 g ai/ha) | Watergrass, Early plant response rating ([10]; 125 g ai/ha) | Plant response rating, Watergrass, Early [10]
60: Redstem plant response rating ([8]; 250 g ai/ha)

CCOC(=O)c1nc(-c2ccc(Cl)cc2)nc(N)c1Cl [Compound 64, ethyl 6-amino-5-chloro-2-(4-chlorophenyl)-4-pyrimidinecarboxylate]
65: Plant response rating, Sedge, Umbrella [1]
20: Watergrass, Late plant response rating ([3]; 125 g ai/ha) | Watergrass, Late plant response rating ([3]; 250 g ai/ha) | Plant response rating, Redstem [8]
80: Sedge, Umbrella plant response rating ([1]; 32 g ai/ha) | Redstem plant response rating ([8]; 250 g ai/ha)
0: Rice, Transplanted plant response rating ([2]; 32 g ai/ha) | Rice, Transplanted plant response rating ([2]; 64 g ai/ha) | Plant response rating, Rice, Transplanted [2] | Watergrass, Late plant response rating ([3]; 32 g ai/ha) | Watergrass, Late plant response rating ([3]; 64 g ai/ha) | Plant response rating, Watergrass, Late [3] | Rice, Water Seeded plant response rating ([4]; 32 g ai/ha) | Rice, Water Seeded plant response rating ([4]; 64 g ai/ha) | Rice, Water Seeded plant response rating ([4]; 125 g ai/ha) | Rice, Water Seeded plant response rating ([4]; 250 g ai/ha) | Plant response rating, Rice, Water Seeded [4] | Junglerice plant response rating ([5]; 32 g ai/ha) | Junglerice plant response rating ([5]; 64 g ai/ha) | Junglerice plant response rating ([5]; 125 g ai/ha) | Junglerice plant response rating ([5]; 250 g ai/ha) | Plant response rating, Junglerice [5] | Sprangletop, Brdd. plant response rating ([9]; 32 g ai/ha) | Sprangletop, Brdd. plant response rating ([9]; 64 g ai/ha) | Sprangletop, Brdd. plant response rating ([9]; 125 g ai/ha) | Sprangletop, Brdd. plant response rating ([9]; 250 g ai/ha) | Plant response rating, Sprangletop, Brdd. [9] | Watergrass, Early plant response rating ([10]; 32 g ai/ha) | Watergrass, Early plant response rating ([10]; 64 g ai/ha) | Watergrass, Early plant response rating ([10]; 125 g ai/ha) | Watergrass, Early plant response rating ([10]; 250 g ai/ha) | Plant response rating, Watergrass, Early [10]
100: Sedge, Umbrella plant response rating ([1]; 125 g ai/ha) | Sedge, Umbrella plant response rating ([1]; 250 g ai/ha) | Flatsedge, Rice plant response rating ([6]; 125 g ai/ha) | Flatsedge, Rice plant response rating ([6]; 250 g ai/ha) | Ducksalad plant response rating ([7]; 32 g ai/ha) | Ducksalad plant response rating ([7]; 64 g ai/ha) | Ducksalad plant response rating ([7]; 125 g ai/ha) | Ducksalad plant response rating ([7]; 250 g ai/ha) | Plant response rating, Ducksalad [7]
85: Sedge, Umbrella plant response rating ([1]; 64 g ai/ha) | Flatsedge, Rice plant response rating ([6]; 32 g ai/ha)
90: Flatsedge, Rice plant response rating ([6]; 64 g ai/ha)
10: Rice, Transplanted plant response rating ([2]; 125 g ai/ha) | Rice, Transplanted plant response rating ([2]; 250 g ai/ha)
60: Redstem plant response rating ([8]; 32 g ai/ha) | Redstem plant response rating ([8]; 64 g ai/ha) | Redstem plant response rating ([8]; 125 g ai/ha)
75: Plant response rating, Flatsedge, Rice [6]
